Reference: US11395490B2, “Herbicidal composition” (SYNGENTA CROP PROTECTION, LLC, priority 2005, dated 2022)

Key:
Assay type in all cases: in vivo
Conditions in all cases: 21 days after treatment
Ipomea purpurea (PHBPU) [1] = test: Pre-emergence test, Ipomea purpurea
From the text: (§1) The herbicidal action to be expected, We, for a given combination of two herbicides can be calculated as follows (see COLBY, S. R. “Calculating synergistic and antagonistic response of herbicide combinations”. Weeds 15, pages 20-22; 1967): We=X+[Y·(100−X)/100] wherein: X=% herbicidal action in the case of treatment with active ingredient (A) using an application rate of p kg per hectare, in comparison with untreated control (=0%). Y=% herbicidal action in the case of treatment with active ingredient (B) using an application rate of q kg per hectare, in comparison with untreated control. We=expected herbicidal action (% herbicidal action in comparison with untreated control) after treatment with active ingredient (A) and active ingredient (B) at a rate of application of p+q kg of active ingredient per hectare. If the action actually observed is greater than the expected value We, there is a synergistic effect. Trial Description, Pre-Emergence Test: Monocotyledonous and dicotyledonous test plants are sown in standard soil in plastics pots. The plants tested were: Maize (ZEAMX), Ipomea purpurea (PHBPU), Euphorbia heterophylla (EPHHL), Panicum millenacearum (PANMI). Immediately after sowing, the test compounds in aqueous suspension are applied by spraying (200 litres of water/ha). (A) was formulated as a SC50, and (B1), (B2) and (B3) were formulated as WP25; 1% adjuvant crop oil concentrate (Agridex) (v/v) was added to all treatments. The compounds were applied alone and in combination as tank mixtures. The rates of application depend on the optimum concentrations determined under field conditions and greenhouse conditions. The test plants are then cultivated in a greenhouse under optimum conditions. Evaluation of the tests is made after 21 days (% action, 100%=plants have died, 0%=no phytotoxic action).

Maize (ZEAMX) [2] = test: Pre-emergence test, Maize
From the text: as §1

[3] = system: Panicum millenacearum (PANMI); test: Pre-emergence test, Panicum millenacearum
From the text: as §1

[4] = system: Euphorbia heterophylla (EPHHL); test: Pre-emergence test, Euphorbia heterophylla
From the text: as §1

[5] = system: Euphorbia heterophylla (EPHHL); test: Post-emergence test, Euphorbia heterophylla
From the text: as §1
(§2) Trial Description Post-Emergence Test: The test plants are raised in plastics pots under greenhouse conditions as far as the 2- to 3-leaf stage. A standard soil is used as the cultivation substrate. The plants tested were: Maize (ZEAMX), Ipomea purpurea (PHBPU), Sorghum vulgare (SORVU), Euphorbia heterophylla (EPHHL), Panicum millenacearum (PANMI). At the 2- to 3-leaf stage, the herbicides are applied individually and as mixtures to the test plants. The test compounds are applied in the form of an aqueous suspension in 200 litres of water/ha. (A) was formulated as a SC50, and (B1), (B2) and (B3) were formulated as WP25; 1% adjuvant crop oil concentrate (Agridex) (v/v) was added to all treatments. The compounds were applied alone and in combination as tank mixtures. The rates of application depend on the optimum concentrations determined under field conditions and greenhouse conditions. Evaluation of the tests is made after 21 days (% action, 100%=plants have died, 0%=no phytotoxic action).

Maize (ZEAMX) [6] = test: Post-emergence test, Maize
From the text: as §1, §2

Sorghum vulgare (SORVU) = test: Post-emergence test, Sorghum vulgare
From the text: as §1, §2

Ipomea purpurea (PHBPU) [7] = test: Post-emergence test, Ipomea purpurea
From the text: as §1, §2

[8] = system: Panicum millenacearum (PANMI); test: Post-emergence test, Panicum millenacearum
From the text: as §1, §2

CS(=O)(=O)c1ccc(C(=O)C2C(=O)CCCC2=O)c(Cl)c1COCC(F)(F)F [(B2), tembotrione]
Observed plant damage PHBPU (Ipomea purpurea (PHBPU) [1]; rate 18.75 g/ha): 0% | Observed plant damage PHBPU (Ipomea purpurea (PHBPU) [1]; rate 37.5 g/ha): 0% | Observed plant damage PHBPU (Ipomea purpurea (PHBPU) [1]; rate 75 g/ha): 0% | Observed plant damage PHBPU (Ipomea purpurea (PHBPU) [1]; rate 150 g/ha): 20% | Observed plant damage PHBPU (Ipomea purpurea (PHBPU) [1]; rate 300 g/ha): 75% | Observed plant damage ZEAMX (Maize (ZEAMX) [2]; rate 18.75 g/ha): 0% | Observed plant damage ZEAMX (Maize (ZEAMX) [2]; rate 37.5 g/ha): 0% | Observed plant damage ZEAMX (Maize (ZEAMX) [2]; rate 75 g/ha): 0% | Observed plant damage ZEAMX (Maize (ZEAMX) [2]; rate 150 g/ha): 0% | Observed plant damage ZEAMX (Maize (ZEAMX) [2]; rate 300 g/ha): 0% | Observed plant damage PANMI ([3]; rate 18.75 g/ha): 0% | Observed plant damage PANMI ([3]; rate 37.5 g/ha): 0% | Observed plant damage PANMI ([3]; rate 75 g/ha): 0% | Observed plant damage PANMI ([3]; rate 150 g/ha): 40% | Observed plant damage PANMI ([3]; rate 300 g/ha): 98% | Observed plant damage EPHHL ([4]; rate 18.75 g/ha): 0% | Observed plant damage EPHHL ([4]; rate 37.5 g/ha): 0% | Observed plant damage EPHHL ([4]; rate 75 g/ha): 0% | Observed plant damage EPHHL ([4]; rate 150 g/ha): 100% | Observed plant damage EPHHL ([4]; rate 300 g/ha): 100% | Observed plant damage EPHHL ([5]; rate 18.75 g/ha): 65% | Observed plant damage EPHHL ([5]; rate 37.5 g/ha): 75% | Observed plant damage EPHHL ([5]; rate 75 g/ha): 80% | Observed plant damage EPHHL ([5]; rate 150 g/ha): 98% | Observed plant damage EPHHL ([5]; rate 300 g/ha): 100% | Observed plant damage ZEAMX (Maize (ZEAMX) [6]; rate 18.75 g/ha): 0% | Observed plant damage ZEAMX (Maize (ZEAMX) [6]; rate 37.5 g/ha): 0% | Observed plant damage ZEAMX (Maize (ZEAMX) [6]; rate 75 g/ha): 0% | Observed plant damage ZEAMX (Maize (ZEAMX) [6]; rate 150 g/ha): 0% | Observed plant damage ZEAMX (Maize (ZEAMX) [6]; rate 300 g/ha): 0% | Observed plant damage SORVU (Sorghum vulgare (SORVU); rate 18.75 g/ha): 0% | Observed plant damage SORVU (Sorghum vulgare (SORVU); rate 37.5 g/ha): 0% | Observed plant damage SORVU (Sorghum vulgare (SORVU); rate 75 g/ha): 0% | Observed plant damage SORVU (Sorghum vulgare (SORVU); rate 150 g/ha): 0% | Observed plant damage SORVU (Sorghum vulgare (SORVU); rate 300 g/ha): 0% | Observed plant damage PHBPU (Ipomea purpurea (PHBPU) [7]; rate 18.75 g/ha): 0% | Observed plant damage PHBPU (Ipomea purpurea (PHBPU) [7]; rate 37.5 g/ha): 25% | Observed plant damage PHBPU (Ipomea purpurea (PHBPU) [7]; rate 75 g/ha): 55% | Observed plant damage PHBPU (Ipomea purpurea (PHBPU) [7]; rate 150 g/ha): 60% | Observed plant damage PHBPU (Ipomea purpurea (PHBPU) [7]; rate 300 g/ha): 60% | Observed plant damage PANMI ([8]; rate 18.75 g/ha): 0% | Observed plant damage PANMI ([8]; rate 37.5 g/ha): 20% | Observed plant damage PANMI ([8]; rate 75 g/ha): 20% | Observed plant damage PANMI ([8]; rate 150 g/ha): 65% | Observed plant damage PANMI ([8]; rate 300 g/ha): 50%

Cc1c(C(=O)c2cnn(C)c2O)ccc(S(C)(=O)=O)c1C1=NOCC1 [(B3), topramezone]
Observed plant damage PHBPU (Ipomea purpurea (PHBPU) [1]; rate 5 g/ha): 0% | Observed plant damage PHBPU (Ipomea purpurea (PHBPU) [1]; rate 10 g/ha): 0% | Observed plant damage PHBPU (Ipomea purpurea (PHBPU) [1]; rate 20 g/ha): 0% | Observed plant damage PHBPU (Ipomea purpurea (PHBPU) [1]; rate 40 g/ha): 0% | Observed plant damage PHBPU (Ipomea purpurea (PHBPU) [1]; rate 80 g/ha): 55% | Observed plant damage ZEAMX (Maize (ZEAMX) [2]; rate 5 g/ha): 0% | Observed plant damage ZEAMX (Maize (ZEAMX) [2]; rate 10 g/ha): 0% | Observed plant damage ZEAMX (Maize (ZEAMX) [2]; rate 20 g/ha): 0% | Observed plant damage ZEAMX (Maize (ZEAMX) [2]; rate 40 g/ha): 0% | Observed plant damage ZEAMX (Maize (ZEAMX) [2]; rate 80 g/ha): 0% | Observed plant damage PANMI ([3]; rate 5 g/ha): 0% | Observed plant damage PANMI ([3]; rate 10 g/ha): 0% | Observed plant damage PANMI ([3]; rate 20 g/ha): 0% | Observed plant damage PANMI ([3]; rate 40 g/ha): 0% | Observed plant damage PANMI ([3]; rate 80 g/ha): 98% | Observed plant damage EPHHL ([4]; rate 5 g/ha): 0% | Observed plant damage EPHHL ([4]; rate 10 g/ha): 0% | Observed plant damage EPHHL ([4]; rate 20 g/ha): 0% | Observed plant damage EPHHL ([4]; rate 40 g/ha): 0% | Observed plant damage EPHHL ([4]; rate 80 g/ha): 30% | Observed plant damage EPHHL ([5]; rate 5 g/ha): 0% | Observed plant damage EPHHL ([5]; rate 10 g/ha): 20% | Observed plant damage EPHHL ([5]; rate 20 g/ha): 50% | Observed plant damage EPHHL ([5]; rate 40 g/ha): 65% | Observed plant damage EPHHL ([5]; rate 80 g/ha): 90% | Observed plant damage ZEAMX (Maize (ZEAMX) [6]; rate 5 g/ha): 0% | Observed plant damage ZEAMX (Maize (ZEAMX) [6]; rate 10 g/ha): 0% | Observed plant damage ZEAMX (Maize (ZEAMX) [6]; rate 20 g/ha): 0% | Observed plant damage ZEAMX (Maize (ZEAMX) [6]; rate 40 g/ha): 0% | Observed plant damage ZEAMX (Maize (ZEAMX) [6]; rate 80 g/ha): 20% | Observed plant damage SORVU (Sorghum vulgare (SORVU); rate 5 g/ha): 0% | Observed plant damage SORVU (Sorghum vulgare (SORVU); rate 10 g/ha): 0% | Observed plant damage SORVU (Sorghum vulgare (SORVU); rate 20 g/ha): 0% | Observed plant damage SORVU (Sorghum vulgare (SORVU); rate 40 g/ha): 0% | Observed plant damage SORVU (Sorghum vulgare (SORVU); rate 80 g/ha): 0% | Observed plant damage PHBPU (Ipomea purpurea (PHBPU) [7]; rate 5 g/ha): 35% | Observed plant damage PHBPU (Ipomea purpurea (PHBPU) [7]; rate 10 g/ha): 55% | Observed plant damage PHBPU (Ipomea purpurea (PHBPU) [7]; rate 20 g/ha): 20% | Observed plant damage PHBPU (Ipomea purpurea (PHBPU) [7]; rate 40 g/ha): 25% | Observed plant damage PHBPU (Ipomea purpurea (PHBPU) [7]; rate 80 g/ha): 80% | Observed plant damage PANMI ([8]; rate 5 g/ha): 0% | Observed plant damage PANMI ([8]; rate 10 g/ha): 20% | Observed plant damage PANMI ([8]; rate 20 g/ha): 80% | Observed plant damage PANMI ([8]; rate 40 g/ha): 90% | Observed plant damage PANMI ([8]; rate 80 g/ha): 90%
